Our source for the logP values is ChEMBL document CHEMBL1795329, “QSPR modeling of octanol/water partition coefficient for vitamins by optimal descriptors calculated with SMILES” (Eur J Med Chem, 2008).

For orientation: logP means a log measure of how a compound divides between an organic and an aqueous phase. Read a high logP as a more lipophilic compound.

Assay in the first data set: not given
As to conditions: octanol/water.
As to `C=C1CC[C@H](O)C/C1=C/C=C1\CCC[C@]2(C)[C@@H]([C@H](C)CCCC(C)C)CC[C@@H]12` [CHOLECALCIFEROL], the logP was 10.24.
The molecule `C=C1CC[C@H](O)C/C1=C/C=C1\CCC[C@]2(C)[C@@H]([C@H](C)/C=C/[C@H](C)C(C)C)CC[C@@H]12` [ERGOCALCIFEROL] displayed a logP of 10.44.
In the case of `ClC(Cl)C(Cl)(Cl)Cl` [PENTACHLOROETHANE], the logP was found to be 3.627.
The molecule `CC1=C(C/C=C(\C)CCC[C@H](C)CCC[C@H](C)CCCC(C)C)C(=O)c2ccccc2C1=O` [PHYTONADIONE] registered a logP of 11.71.
Still for that read-out and setting: with `C[C@@H]1O[C@@H](OC[C@H]2O[C@@H](Oc3c(-c4ccc(O)c(O)c4)oc4cc(O)cc(O)c4c3=O)[C@H](O)[C@@H](O)[C@@H]2O)[C@H](O)[C@H](O)[C@H]1O` [RUTIN] the figure was -2.02.

Another data set in a line: physchem. As to conditions: octanol/water.
On to `Clc1ccccc1` [CHLOROBENZENE], for which the logP was 2.85.
The molecule `c1cc2c3c(c4ccc5ccccc5c4cc3c1)CC2` [CHOLANTHRENE] came in with a logP of 6.42.
Same read-out and setting: for `C1CCCCCC1` [CYCLOHEPTANE] the value was 3.91; for `C1CCCCC1` [CYCLOHEXANE], 3.35; for `C1=CCCCC1` [CYCLOHEXENE], 2.81.
`C1CCCCCCC1` [CYCLOOCTANE]: the logP was 4.47.
Same read-out and setting: with `C1CCCC1` [CYCLOPENTANE] the figure was 2.79; with `C1=CCCC1` [CYCLOPENTENE], 2.25; with `CCCCCCCCCC` [DECANE], 5.98.
Take `CCSCC` [DIETHYL SULFIDE]: the logP was 1.9.
Molecule `CCCl` [ETHYL CHLORIDE] registered a logP of 1.47.
On the same count and under the same terms, with `CCc1ccccc1` [ETHYLBENZENE] the figure was 3.32.
As to `c1ccc2c(c1)-c1cccc3cccc-2c13` [FLUORANTHENE], the logP amounted to 4.95.
Same read-out and setting: for `c1ccc2c(c1)Cc1ccccc1-2` [FLUORENE] the value was 4.22; for `Nc1nc2ncc(CNc3ccc(C(=O)N[C@@H](CCC(=O)O)C(=O)O)cc3)nc2c(=O)[nH]1` [FOLIC ACID], -2.81; for `CCCCCCC` [HEPTANE], 4.4.
Molecule `Cc1c(C)c(C)c(C)c(C)c1C` [HEXAMETHYLBENZENE] yielded a logP of 6.04.
Same read-out and setting: with `CCCCCC` [HEXANE] the figure was 3.87.
In turn, `CC(C)c1ccccc1` [ISOPROPYLBENZENE] gave a logP of 3.72.
On to `Cc1cccc(C)c1` [M-XYLENE], for which the logP came to 3.44.
On the same count and under the same terms, with `C[S+](C)CC[C@H](N)C(=O)O` [METHYLMETHIONINE SULFONIUM CHLORIDE] the figure was 0.28; with `CCCCCCCCC` [NONANE], 5.46; with `Cc1ccccc1C` [O-XYLENE], 3.44.
On the same count and under the same terms, for `CCCCCCCC` [OCTANE] the value was 4.93.
Still for that read-out and setting: with `Cc1ccc(C(C)C)cc1` [P-CYMENE] the figure was 4.37; with `Cc1ccc(C)cc1` [P-XYLENE], 3.44; with `CC(C)(CO)[C@@H](O)C(=O)NCCC(=O)O` [PANTOTHENIC ACID], -1.69.
`Clc1cc(Cl)c(Cl)c(Cl)c1Cl` [PENTACHLOROBENZENE]: the logP was determined as 5.71.
For `CCCCC` [PENTANE], the logP turned out to be 3.34.
With `Clc1c(Cl)c(Cl)c(Cl)c(Cl)c1Cl` [PERCHLOROBENZENE], the log partition coefficient (logP) is 6.42.
`c1cc2ccc3cccc4ccc(c1)c2c34` [PYRENE] showed a logP of 4.95.
The same measure, in the same setting: with `ClC(Cl)=C(Cl)Cl` [TETRACHLOROETHYLENE] the figure was 3.02; with `Cc1ncc(C[n+]2csc(CCO)c2C)c(N)n1` [THIAMINE ION], -3.93; with `CC(Cl)(Cl)Cl` [TRICHLOROETHANE], 2.48.
On the same count and under the same terms, for `ClC=C(Cl)Cl` [TRICHLOROETHYLENE] the value was 2.27.
Same read-out and setting: for `FC(Cl)(Cl)Cl` [TRICHLOROMONOFLUOROMETHANE] the value was 2.44; for `CC1=C(/C=C/C(C)=C/C=C/C(C)=C/CO)C(C)(C)CC=C1` [VITAMIN A2], 7.41; for `NC1=C2NCN=C2N=CN1` [VITAMIN B4], -0.09.
`Cc1cc(O)c2ccccc2c1O` [VITAMIN K3H2] yielded a logP of 2.76.
On the same count and under the same terms, with `CCC(C)(C)c1ccccc1` [tert-Amylbenzene] the figure was 4.65.
The same measure, in the same setting: with `CC(C)(C)c1ccccc1` [tert-Butylbenzene] the figure was 4.12.
